Measured values taken from US9029559B2, “Substituted 3-heteroaroylamino-propionic acid derivatives and their use as pharmaceuticals” (SANOFI, priority 2011, dated 2015).

Each molecule was assayed against Recombinant human cathepsin A (Homo sapiens (Human), UniProt P10619) (assay: Cathepsin A inhibitory activity (cleavage of Bodipy FL-labeled bradykinin, microfluidic capillary electrophoresis)). Conditions: read-out: Activity (Cathepsin A inhibitory activity, IC50).
Format: biochemical

Chain of Recombinant human cathepsin A (P10619 29-326): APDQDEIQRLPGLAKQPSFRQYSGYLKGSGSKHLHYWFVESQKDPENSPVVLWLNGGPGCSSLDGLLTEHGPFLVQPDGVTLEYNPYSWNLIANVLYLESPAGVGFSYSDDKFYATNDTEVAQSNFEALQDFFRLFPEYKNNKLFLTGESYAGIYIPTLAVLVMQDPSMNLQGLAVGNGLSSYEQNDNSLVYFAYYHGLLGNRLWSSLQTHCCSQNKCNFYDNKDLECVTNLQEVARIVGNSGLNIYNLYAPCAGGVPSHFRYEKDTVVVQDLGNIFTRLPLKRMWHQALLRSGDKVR
Chain of Recombinant human cathepsin A (P10619 327-480): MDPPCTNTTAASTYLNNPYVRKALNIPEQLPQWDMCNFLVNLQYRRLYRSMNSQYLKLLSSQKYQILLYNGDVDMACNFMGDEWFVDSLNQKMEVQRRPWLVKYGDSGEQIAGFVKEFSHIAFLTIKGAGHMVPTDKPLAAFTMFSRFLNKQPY

IC50	SMILES
1.46 µM	COc1ccc(C(=O)NC(CC(=O)O)c2ccccc2Cl)nc1Br (centres unmarked) [compound 598, 3-[(6-Bromo-5-methoxy-pyridine-2-carbonyl)-amino]-3-(2-chloro-phenyl)-propionic acid]
2.83 µM	COc1ccc([C@H](CC(=O)O)NC(=O)c2cccc(-c3ccccc3Cl)n2)cc1 [compound 599]
3.85 µM	O=C(O)CC(NC(=O)c1cc(Sc2ncccn2)ccn1)c1ccccc1Cl (centres unmarked) [compound 601]
2.28 µM	O=C(O)C[C@H](NC(=O)c1cccc(-c2ccccc2F)n1)c1ccc(Cl)cc1Cl [compound 605]
3.93 µM	O=C(O)C[C@H](NC(=O)c1cccc(-c2ccccc2F)n1)c1cccc(Cl)c1Cl [compound 606]
6.27 µM	O=C(O)C[C@H](NC(=O)c1cccc(-c2ccccc2F)n1)c1ccc(C(F)(F)F)cc1 [compound 608]
2.32 µM	O=C(O)C[C@H](NC(=O)c1cccc(-c2ccccc2Cl)n1)c1cccc(Cl)c1Cl [compound 610]
1.66 µM	O=C(O)C[C@H](NC(=O)c1cccc(-c2ccccc2Cl)n1)c1ccccc1C(F)(F)F [compound 612]
3.58 µM	COc1cc(OC)nc(Oc2cccnc2C(=O)NC(CC(=O)O)c2ccccc2Cl)n1 (centres unmarked) [compound 615]

Same assay, conditions: read-out: Activity (IC50, cathepsin A inhibition)

IC50	SMILES
1.05 µM	COc1ccc(C(=O)N[C@@H](CC(=O)O)c2ccccc2Cl)nc1-c1cc(C)ccc1Cl [compound 492]
11.4 µM	COc1ccc(C(=O)N[C@@H](CC(=O)O)c2ccccc2Cl)nc1-c1ccc(C#N)cc1F [compound 494]
3.89 µM	COc1ccc(C(=O)N[C@@H](CC(=O)O)c2ccccc2Cl)nc1-c1cccc(C2(O)COC2)c1 [compound 495]
2.86 µM	COc1ccc(C(=O)N[C@@H](CC(=O)O)c2ccccc2Cl)nc1-c1cccc(C(C)(C)O)c1 [compound 496]
8.55 µM	O=C(O)CC(NC(=O)c1nc(Cl)ccc1Cl)c1ccc(-c2ccccc2)cc1 (centres unmarked) [compound 498]
8.48 µM	Cc1ccccc1[C@H](CC(=O)O)NC(=O)c1nc(Cl)ccc1Cl [compound 506]
1.21 µM	Cc1ccccc1[C@H](CC(=O)O)NC(=O)c1cncc(Cl)n1 [compound 514]
12.8 µM	O=C(O)CC(NC(=O)c1cnccn1)c1ccccc1Cl (centres unmarked) [compound 521]
10.2 µM	O=C(O)CC(NC(=O)c1ccncc1)c1ccccc1Cl (centres unmarked) [compound 524]
4.96 µM	Cc1cccc(C(=O)NC(CC(=O)O)c2ccccc2Cl)n1 (centres unmarked) [compound 527]
5.81 µM	Cc1ccnc(C(=O)NC(CC(=O)O)c2ccccc2Cl)c1 (centres unmarked) [compound 528]
5.12 µM	O=C(O)CC(NC(=O)c1cc(O)ccn1)c1ccccc1Cl (centres unmarked) [compound 529]
5.27 µM	O=C(O)CC(NC(=O)c1ncccc1F)c1ccccc1Cl (centres unmarked) [compound 530]
7.65 µM	O=C(O)CC(NC(=O)c1cccc(F)n1)c1ccccc1Cl (centres unmarked) [compound 531]
10.2 µM	CCc1ccnc(C(=O)NC(CC(=O)O)c2ccccc2Cl)c1 (centres unmarked) [compound 532]
6.29 µM	Cc1cc(C)nc(C(=O)NC(CC(=O)O)c2ccccc2Cl)c1 (centres unmarked) [compound 533]
5.08 µM	COc1cc(C(=O)NC(CC(=O)O)c2ccccc2Cl)ccn1 (centres unmarked) [compound 536]
1.6 µM	O=C(O)CC(NC(=O)c1cccc(Cl)n1)c1ccccc1Cl (centres unmarked) [compound 540]
10.8 µM	O=C(O)CC(NC(=O)c1ccc2nc[nH]c2n1)c1ccccc1Cl (centres unmarked) [compound 542]
11.1 µM	O=C(O)CC(NC(=O)c1ccc2cnccc2n1)c1ccccc1Cl (centres unmarked) [compound 544]

IC50	SMILES
1.08 µM	COc1ccc(C(=O)NC(CC(=O)O)c2ccccc2Cl)nc1Cl (centres unmarked) [compound 550]
11.1 µM	O=C(O)CC(NC(=O)c1ccnc(N2CCCC2)c1)c1ccccc1Cl (centres unmarked) [compound 553]
14 µM	CC(C)Cc1cc(C(=O)NC(CC(=O)O)c2ccccc2Cl)nc(N)n1 (centres unmarked) [compound 557]
4.38 µM	Cc1ccc([C@H](CC(=O)O)NC(=O)c2cccc(-c3ccccc3F)n2)cc1 [compound 559]
12.9 µM	Cc1cccc([C@H](CC(=O)O)NC(=O)c2cccc(-c3ccccc3F)n2)c1 [compound 560]
5.33 µM	O=C(O)C[C@@H](Cc1ccccc1)NC(=O)c1cccc(-c2ccccc2F)n1 [compound 561]
2.1 µM	O=C(O)CC(NC(=O)c1cccc(Br)n1)c1ccccc1Cl (centres unmarked) [compound 562]
3.09 µM	O=C(O)CC(NC(=O)c1cccc(-c2ccccc2)n1)c1ccccc1Cl (centres unmarked) [compound 563]
4.07 µM	O=C(O)CC(NC(=O)c1cc(-c2ccccc2)ccn1)c1ccccc1Cl (centres unmarked) [compound 565]
11.7 µM	O=C(O)CC(NC(=O)c1cncc(-c2ccccc2)c1)c1ccccc1Cl (centres unmarked) [compound 566]
2.18 µM	O=C(O)C[C@H](NC(=O)c1cccc(-c2ccccc2Cl)n1)c1ccccc1 [compound 567]
7.54 µM	COc1ccc(C(=O)N[C@@H](CC(=O)O)c2ccccc2C)nc1-c1cccnc1 [compound 578]
15.6 µM	Cc1ccc([C@H](CC(=O)O)NC(=O)c2cccc(-c3ccccc3Cl)n2)cc1 [compound 580]
5.76 µM	C[C@@](CC(=O)O)(NC(=O)c1cccc(-c2ccccc2Cl)n1)c1ccccc1 [compound 581]
8.67 µM	O=C(O)CC(NC(=O)c1ccc(Oc2ccccc2)nc1)c1ccccc1Cl (centres unmarked) [compound 585]
7.35 µM	O=C(O)C[C@H](NC(=O)c1cccc(-c2ccccc2Cl)n1)c1cccc(F)c1 [compound 587]
4.89 µM	O=C(O)CC(NC(=O)c1cccc(-c2ccccc2F)n1)c1ccccc1Cl (centres unmarked) [compound 589]
1.42 µM	COc1ccc(-c2cccc(C(=O)NC(CC(=O)O)c3ccccc3Cl)n2)cc1 (centres unmarked) [compound 595]
5.77 µM	COc1cccc(-c2cccc(C(=O)NC(CC(=O)O)c3ccccc3Cl)n2)c1 (centres unmarked) [compound 596]
1.45 µM	COc1ccccc1-c1cccc(C(=O)NC(CC(=O)O)c2ccccc2Cl)n1 (centres unmarked) [compound 597]

Same assay, conditions: read-out: Activity (IC50, cathepsin A inhibitory activity)

IC50	SMILES
> 10 µM	COc1ncc(C(=O)N[C@@H](CC(=O)O)c2ccccc2C)cc1-c1cccc(-c2ccccc2)c1 [compound 423]
8.84 µM	COc1ncc(C(=O)N[C@@H](CC(=O)O)c2ccccc2C)cc1-c1ccc(F)c(F)c1 [compound 425]
1.54 µM	COc1ccc(C(=O)N[C@@H](CC(=O)O)c2ccccc2Cl)nc1-c1cccc(F)c1 [compound 426]
7.11 µM	COc1ccc(C(=O)N[C@@H](CC(=O)O)c2ccccc2Cl)nc1-c1ccc2ccccc2c1 [compound 427, (S)-3-(2-Chloro-phenyl)-3-[(5-methoxy-6-naphthalen-2-yl-pyridine-2-carbonyl)-amino]-propionic acid]
8.26 µM	COc1ccc(C(=O)N[C@@H](CC(=O)O)c2ccccc2Cl)nc1-c1cccc(C#N)c1 [compound 433]
4.2 µM	COc1ccc(C(=O)N[C@@H](CC(=O)O)c2ccccc2Cl)nc1-c1cccc(C(C)=O)c1 [compound 435]
2.97 µM	COc1ccc(C(=O)N[C@@H](CC(=O)O)c2ccccc2Cl)nc1-c1cccc(-c2ccccc2)c1 [compound 436]
2.39 µM	COc1ccc(C(=O)N[C@@H](CC(=O)O)c2ccccc2Cl)nc1-c1cc(F)cc(F)c1 [compound 439]
1.96 µM	COc1ccc(C(=O)N[C@@H](CC(=O)O)c2ccccc2Cl)nc1-c1ccc(F)c(F)c1 [compound 440]
8.04 µM	COc1ccc(C(=O)N[C@@H](CC(=O)O)c2ccccc2Cl)nc1-c1ccncc1 [compound 443]
10.1 µM	COc1ccc(C(=O)N[C@@H](CC(=O)O)c2ccccc2Cl)nc1-c1cccnc1 [compound 444]
2.02 µM	COc1ccc(C(=O)N[C@@H](CC(=O)O)c2ccccc2Cl)nc1-c1ccc(C)c(F)c1 [compound 449]
1.6 µM	COc1ccc(C(=O)N[C@@H](CC(=O)O)c2ccccc2Cl)nc1-c1ccc(C)cc1C [compound 450]
3.79 µM	COc1ccc(C(=O)N[C@@H](CC(=O)O)c2ccccc2Cl)nc1-c1ccc(F)c(C)c1 [compound 451]
6.49 µM	COc1ccc(C(=O)N[C@@H](CC(=O)O)c2ccccc2Cl)nc1-c1ccc(F)nc1 [compound 453]
2.5 µM	COc1ccc(C(=O)N[C@@H](CC(=O)O)c2ccccc2Cl)nc1-c1ccccc1C(=O)N(C)C [compound 454]
1.15 µM	COc1ccc(Cl)cc1-c1nc(C(=O)N[C@@H](CC(=O)O)c2ccccc2Cl)ccc1OC [compound 459]
8.31 µM	COc1ccc(OC)c(-c2nc(C(=O)N[C@@H](CC(=O)O)c3ccccc3Cl)ccc2OC)c1 [compound 461]
6.8 µM	COc1ccc(C(=O)N[C@@H](CC(=O)O)c2ccccc2C)nc1-c1ccc(C#N)cc1 [compound 465]
5.63 µM	COc1ccc(C(=O)N[C@@H](CC(=O)O)c2ccccc2C)nc1-c1cc(C)cnc1Cl [compound 469]
4.23 µM	COc1ccc(C(=O)N[C@@H](CC(=O)O)c2ccccc2C)nc1-c1cccc(-c2nnc(C)o2)c1 [compound 471, (S)-3-({5-Methoxy-6-[3-(5-methyl-[1,3,4]oxadiazol-2-yl)-phenyl]-pyridine-2-carbonyl}-amino)-3-o-tolyl-propionic acid]
> 10 µM	COc1ccc(C(C)(C)C)cc1-c1nc(C(=O)N[C@@H](CC(=O)O)c2ccccc2Cl)ccc1OC [compound 475]
4.37 µM	COc1ccc(C(=O)N[C@@H](CC(=O)O)c2ccccc2Cl)nc1-c1ccc(Cl)c(F)c1 [compound 480]
8.77 µM	COc1ccc(C(=O)N[C@@H](CC(=O)O)c2ccccc2Cl)nc1-c1cc(C)cnc1Cl [compound 481]
9.49 µM	COc1ccc(C(=O)N[C@@H](CC(=O)O)c2ccccc2Cl)nc1-c1cc(C)cc(Cl)c1 [compound 483]
6.69 µM	COc1ccc(C(=O)N[C@@H](CC(=O)O)c2ccccc2Cl)nc1-c1cccc(-c2nnc(C)o2)c1 [compound 484]
4.95 µM	COc1ccc(C(=O)N[C@@H](CC(=O)O)c2ccccc2Cl)nc1-c1c(C)nn(C)c1C [compound 486]
9.08 µM	COc1ccc(C(=O)N[C@@H](CC(=O)O)c2ccccc2Cl)nc1-c1ccnc(N2CCOCC2)c1 [compound 490]
